# Assays:
# [1] = molecular target: T1, ΔF508-CFTR (Homo sapiens, UniProt P13569, DEL508-508); assay: CFTR cell surface levels using HRP-tagged ΔF508-CFTR expressing CFBE cells, in the presence of a co-corrector; format: cell-based; details: HRP-tagged ΔF508-CFTR CFBE cells, in the presence of 3 μM co-corrector; for EC50: read-out: EC50
# T1 construct: host or cells: CFBE41o-, doxycycline-inducible
# How it was run: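 Chemiluminescent read-out of surface HRP (15 min, dark) after PBS washes. Activity is normalized as 100×(sample−DMSO)/(3 μM co-corrector alone−DMSO).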
# [2] = molecular target: T1, ΔF508-CFTR; assay: CFTR cell surface levels using HRP-tagged ΔF508-CFTR expressing CFBE cells, intrinsic corrector capacity; format: cell-based; design: % Activation: concentration or dose not given beside the values; details: HRP-tagged ΔF508-CFTR expressing CFBE41o- cells, compound alone (intrinsic corrector capacity), 20 hours at 33° C.; for EC50: read-out: EC50
# Excerpt: Measuring CFTR Cell Surface Levels Using HRP-Tagged ΔF508-CFTR Expressing CFBE Cells
# The HRP-tagged ΔF508-CFTR cell assay measures the expression of CFTR-ΔF508 at the plasma membrane. CFTR-ΔF508 has a folding defect leading to absence of protein at the plasma membrane. This assay is used to evaluate the capacity of compounds to increase the expression of CFTR-ΔF508 at the plasma membrane. The CFTR-ΔF508 is tagged with HRP (horse radish peroxidase enzyme) within the ECL4 (Extracellular loop 4) of CFTR (Phuan, P.-W. et al. Synergy-based small-molecule screen using a human lung epithelial cell line yields ΔF508-CFTR correctors that augment VX-809 maximal efficacy. Mol. Pharmacol. 86, 42-51 (2014)). When HRP-tagged ΔF508-CFTR is present at the plasma membrane, the HRP enzyme activity can be measured. The amount of CFTR-ΔF508 that can be rescued to the plasma membrane is correlated with the amount of functional enzyme that can be measured.
# There are several ways to measure the capacity of compounds to rescue CFTR-ΔF508 to the plasma membrane; either compounds are evaluated on their own and the impact on plasma membrane levels is measured or compounds are evaluated in combination with a co-corrector, i.e. a compound that rescues CFTR-ΔF508 to the plasma membrane but rescue can be enhanced by addition of compounds due to a complementary mode of action.
# Activity of Compounds for their Intrinsic Corrector Capacity:
# For this purpose doxycycline-inducible ΔF508-CFTR-HRP expressing CFBE4lo− cells (obtained from Gergely Lukacs, McGill University) were maintained in MEM (Gibco; 31095) supplemented with 10% fetal bovine serum (Hyclone; SV30160.03) under puromycin (3 μg/mL) and G418 selection (0.2 mg/mL). For compound testing, cells were seeded at 4000 cells/well in white 384-well plates (Greiner; 781080) in 50 μL medium containing 0.5 μg/mL doxycycline and incubated for 68 hours at 37° C., 5% CO2. On day four, […] compounds diluted in PBS were added to the plates at a final DMSO concentration of 0.1%. All compound plates contained negative controls (DMSO) and positive controls ([…] corrector, 3-[(2R,4R)-4-({[1-(2,2-difluoro-1,3-benzodioxol-5-yl)cyclopropyl]carbonyl}amino)-7-methoxy-3,4-dihydro-2H-chromen-2-yl]benzoic acid). Cell plates were incubated at 33° C., 5% CO2 for 20 hours. On day five, the cells were washed five times with phosphate-buffered saline, and HRP activity was assayed by the addition of 50 μL/well of HRP substrate (SuperSignal™ West Pico Chemiluminescent Substrate, Thermo Scientific; 34080). After incubation for 15 minutes in the dark, chemiluminescence was measured using a plate reader (EnVision®, Perkin Elmer). Raw data were normalized to percentage activity values using the equation: 100×(Sample−Negative control)/(Positive control−Negative Control).
# T1 sequence (P13569 with tags, fused parts or gaps DEL508-508): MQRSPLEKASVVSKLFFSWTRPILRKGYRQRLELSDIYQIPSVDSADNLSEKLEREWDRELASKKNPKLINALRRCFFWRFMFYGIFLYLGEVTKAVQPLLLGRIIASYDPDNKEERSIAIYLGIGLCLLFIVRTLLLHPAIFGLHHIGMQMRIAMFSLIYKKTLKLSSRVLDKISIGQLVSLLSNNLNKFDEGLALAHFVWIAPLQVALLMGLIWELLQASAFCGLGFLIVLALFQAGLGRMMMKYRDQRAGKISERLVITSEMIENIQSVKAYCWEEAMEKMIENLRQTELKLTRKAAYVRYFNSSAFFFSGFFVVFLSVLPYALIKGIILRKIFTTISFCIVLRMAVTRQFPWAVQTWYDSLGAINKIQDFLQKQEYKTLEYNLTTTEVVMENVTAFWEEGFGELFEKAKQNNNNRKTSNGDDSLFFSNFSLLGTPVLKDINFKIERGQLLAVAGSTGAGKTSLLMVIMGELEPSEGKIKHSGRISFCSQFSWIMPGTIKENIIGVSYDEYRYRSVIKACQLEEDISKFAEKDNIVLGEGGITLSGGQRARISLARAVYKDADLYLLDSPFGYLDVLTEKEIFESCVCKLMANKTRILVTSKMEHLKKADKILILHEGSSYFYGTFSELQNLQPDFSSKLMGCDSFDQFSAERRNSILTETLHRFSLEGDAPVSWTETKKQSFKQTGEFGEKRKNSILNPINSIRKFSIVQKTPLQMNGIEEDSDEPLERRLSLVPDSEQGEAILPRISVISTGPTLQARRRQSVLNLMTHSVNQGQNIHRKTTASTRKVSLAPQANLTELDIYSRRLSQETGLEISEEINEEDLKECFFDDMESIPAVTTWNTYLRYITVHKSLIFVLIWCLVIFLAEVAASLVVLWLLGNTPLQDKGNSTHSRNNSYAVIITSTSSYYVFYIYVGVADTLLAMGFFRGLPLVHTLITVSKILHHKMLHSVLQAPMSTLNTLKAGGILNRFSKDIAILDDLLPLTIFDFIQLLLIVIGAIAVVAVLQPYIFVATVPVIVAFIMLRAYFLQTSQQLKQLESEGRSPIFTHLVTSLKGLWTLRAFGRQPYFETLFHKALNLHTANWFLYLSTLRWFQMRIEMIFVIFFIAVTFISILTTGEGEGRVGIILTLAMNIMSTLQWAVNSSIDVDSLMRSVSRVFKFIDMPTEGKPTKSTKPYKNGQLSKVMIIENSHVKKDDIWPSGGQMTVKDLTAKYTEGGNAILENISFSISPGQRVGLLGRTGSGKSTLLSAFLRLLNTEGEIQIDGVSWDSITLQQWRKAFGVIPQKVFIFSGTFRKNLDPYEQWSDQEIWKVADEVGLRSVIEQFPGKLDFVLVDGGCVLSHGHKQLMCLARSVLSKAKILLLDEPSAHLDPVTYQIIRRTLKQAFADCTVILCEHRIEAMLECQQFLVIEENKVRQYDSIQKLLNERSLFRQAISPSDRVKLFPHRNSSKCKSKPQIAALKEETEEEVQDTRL
structure (smiles),measurement,setting,value
"COCC1(F)CCN(c2cc(C(=O)NS(C)(=O)=O)nc3c2c(C2CCC2)nn3-c2ccccc2)CC1 [Compound 504, 3-cyclobutyl-4-[4-fluoro-4-(methoxymethyl)piperidin-1-yl]-N-(methanesulfonyl)-1-phenyl-1H-pyrazolo[3,4-b]pyridine-6-carboxamide]",% Activation,[1],404.8%
same,EC50,[1],0.21 µM
same,% Activation,[2],206.4%
same,EC50,[2],0.301 µM
"CN(C)S(=O)(=O)NC(=O)c1cc(OCC2CCN(C3CCC3)CC2)c2c(C3CCC3)nn(-c3ccc(F)cc3)c2n1 [Compound 617, 3-cyclobutyl-4-[(1-cyclobutylpiperidin-4-yl)methoxy]-N-(dimethylsulfamoyl)-1-(4-fluorophenyl)-1H-pyrazolo[3,4-b]pyridine-6-carboxamide]",% Activation,[1],324.25%
same,EC50,[1],0.978 µM
same,% Activation,[2],137.1%
same,EC50,[2],0.871 µM
"CC(C)c1nn(-c2cccc(C(F)(F)F)c2)c2nc(C(=O)NS(C)(=O)=O)cc(-c3ccc(N4CCC(C#N)CC4)cc3)c12 [Compound 135, 4-[4-(4-cyanopiperidin-1-yl)phenyl]-N-(methanesulfonyl)-3-(propan-2-yl)-1-[3-(trifluoromethyl)phenyl]-1H-pyrazolo[3,4-b]pyridine-6-carboxamide]",% Activation,[1],512.9%
same,EC50,[1],0.373 µM
same,% Activation,[2],299.63%
same,EC50,[2],0.696 µM
"CCOC(=O)N1CCC(NS(=O)(=O)NC(=O)c2cc(N3CCC(COC)CC3)c3c(C4CCC4)nn(-c4ccccc4)c3n2)CC1 [Compound 393, ethyl 4-[({3-cyclobutyl-4-[4-(methoxymethyl)piperidin-1-yl]-1-phenyl-1H-pyrazolo[3,4-b]pyridine-6-carbonyl}sulfamoyl)amino]piperidine-1-carboxylate]",% Activation,[1],533.65%
same,EC50,[1],0.0208 µM
same,% Activation,[2],423.6%
same,EC50,[2],0.0514 µM
"CC(C)c1nn(-c2cccc(C(F)(F)F)c2)c2nc(C(=O)NS(C)(=O)=O)cc(-c3ccc(N(C)C4CCOCC4)nc3)c12 [Compound 133, N-(methanesulfonyl)-4-{6-[methyl(oxan-4-yl)amino]pyridin-3-yl}-3-(propan-2-yl)-1-[3-(trifluoromethyl)phenyl]-1H-pyrazolo[3,4-b]pyridine-6-carboxamide]",% Activation,[1],417.7%
same,EC50,[1],0.336 µM
same,% Activation,[2],222.33%
same,EC50,[2],0.413 µM
"COCCS(=O)(=O)NC(=O)c1cc(-c2ccc(N3CCC(C#N)CC3)nc2)c2c(n1)n(-c1ccccc1)nc2[C@H]1C[C@H](C)C1 [Compound 276, 4-[6-(4-cyanopiperidin-1-yl)pyridin-3-yl]-N-(2-methoxyethanesulfonyl)-3-(trans-3-methylcyclobutyl)-1-phenyl-1H-pyrazolo[3,4-b]pyridine-6-carboxamide]",% Activation,[1],417.25%
same,EC50,[1],0.0429 µM
same,% Activation,[2],356.7%
same,EC50,[2],0.779 µM
"CC(c1ccc(-c2cc(C(=O)NS(=O)(=O)N(C)C)nc3c2c(C2CCC2)nn3C2CCCCC2)cc1)N1CCOCC1 (stereo not drawn) [Compound 543, 3-cyclobutyl-1-cyclohexyl-N-(dimethylsulfamoyl)-4-{4-[1-(morpholin-4-yl)ethyl]phenyl}-1H-pyrazolo[3,4-b]pyridine-6-carboxamide]",% Activation,[1],336.1%
same,EC50,[1],0.139 µM
same,% Activation,[2],115.7%
same,EC50,[2],0.238 µM
"CN1CCN(Cc2cc(C(=O)NS(C)(=O)=O)nc3c2c(C2CCC2)nn3-c2ccc(F)cc2)CC1 [Compound 518, 3-cyclobutyl-1-(4-fluorophenyl)-N-(methanesulfonyl)-4-[(4-methylpiperazin-1-yl)methyl]-1H-pyrazolo[3,4-b]pyridine-6-carboxamide]",% Activation,[1],189.55%
same,EC50,[1],3.13 µM
same,% Activation,[2],35.86%
"CC(C)c1nn(-c2ccc(F)cc2)c2nc(C(=O)NS(C)(=O)=O)cc(OCCC3CCOCC3)c12 [Compound 285, 1-(4-fluorophenyl)-N-(methanesulfonyl)-4-[2-(oxan-4-yl)ethoxy]-3-(propan-2-yl)-1H-pyrazolo[3,4-b]pyridine-6-carboxamide]",% Activation,[1],327.57%
same,EC50,[1],0.246 µM
same,% Activation,[2],125.5%
same,EC50,[2],0.294 µM
"CNS(=O)(=O)NC(=O)c1cc(N2CCN(C(=O)OCC(C)C)CC2)c2c(C3CCC3)nn(-c3ccc(F)cc3)c2n1 [Compound 684, 2-methylpropyl 4-{3-cyclobutyl-1-(4-fluorophenyl)-6-[(methylsulfamoyl)carbamoyl]-1H-pyrazolo[3,4-b]pyridin-4-yl}piperazine-1-carboxylate]",% Activation,[2],356.9%
same,EC50,[2],0.115 µM
"CC(C)COC(=O)N1CCN(c2cc(C(=O)NS(C)(=O)=O)nc3c2c(C2CCC2)nn3-c2ccc(F)cc2)CC1 [Compound 681, 2-methylpropyl 4-{3-cyclobutyl-1-(4-fluorophenyl)-6-[(methanesulfonyl)carbamoyl]-1H-pyrazolo[3,4-b]pyridin-4-yl}piperazine-1-carboxylate]",% Activation,[2],366.2%
same,EC50,[2],0.172 µM
"CCOC(=O)N1CCN(c2cc(C(=O)NS(=O)(=O)N3CCOCC3)nc3c2c(C2CCC2)nn3-c2ccc(F)cc2)CC1 [Compound 678, ethyl 4-{3-cyclobutyl-1-(4-fluorophenyl)-6-[(morpholine-4-sulfonyl)carbamoyl]-1H-pyrazolo[3,4-b]pyridin-4-yl}piperazine-1-carboxylate]",% Activation,[2],345.1%
same,EC50,[2],0.221 µM
"CN1CCC2(CC1)CCN(c1cc(C(=O)NS(=O)(=O)N3CCOCC3)nc3c1c(C1CCC1)nn3-c1ccc(F)cc1)CC2 [Compound 685, 3-cyclobutyl-1-(4-fluorophenyl)-4-(9-methyl-3,9-diazaspiro[5.5]undecan-3-yl)-N-(morpholine-4-sulfonyl)-1H-pyrazolo[3,4-b]pyridine-6-carboxamide]",% Activation,[2],144.3%
same,EC50,[2],0.77 µM
"CC(C)COC(=O)N1CCN(c2cc(C(=O)NS(=O)(=O)N3CCOCC3)nc3c2c(C2CCC2)nn3-c2ccc(F)cc2)CC1 [Compound 682, 2-methylpropyl 4-{3-cyclobutyl-1-(4-fluorophenyl)-6-[(morpholine-4-sulfonyl)carbamoyl]-1H-pyrazolo[3,4-b]pyridin-4-yl}piperazine-1-carboxylate]",% Activation,[2],260.8%
same,EC50,[2],0.297 µM
"CCOC(=O)N1CCC(NS(=O)(=O)NC(=O)c2cc(N3CCC(COC)CC3)c3c(C4CCC4)nn(-c4ccc(F)cc4)c3n2)CC1 [Compound 673, ethyl 4-[({3-cyclobutyl-1-(4-fluorophenyl)-4-[4-(methoxymethyl)piperidin-1-yl]-1H-pyrazolo[3,4-b]pyridine-6-carbonyl}sulfamoyl)amino]piperidine-1-carboxylate]",% Activation,[2],423.5%
same,EC50,[2],0.288 µM
"Cc1nn(-c2ccccc2)c2nc(C(=O)NS(=O)(=O)C(F)(F)F)cc(-c3ccc(N4CCOCC4)cc3)c12 [Compound 3, 3-methyl-4-[4-(morpholin-4-yl)phenyl]-1-phenyl-N-(trifluoromethanesulfonyl)-1H-pyrazolo[3,4-b]pyridine-6-carboxamide]",% Activation,[2],53.08%
same,EC50,[2],3.34 µM
"CCOC(=O)N1CCN(c2cc(C(=O)NS(=O)(=O)CCOC)nc3c2c(C2CCC2)nn3-c2ccc(F)cc2)CC1 [Compound 677, ethyl 4-{3-cyclobutyl-1-(4-fluorophenyl)-6-[(2-methoxyethanesulfonyl)carbamoyl]-1H-pyrazolo[3,4-b]pyridin-4-yl}piperazine-1-carboxylate]",% Activation,[2],458.5%
same,EC50,[2],0.171 µM

# Source: patent US10259810B2, “N-sulfonylated pyrazolo[3,4-b]pyridin-6-carboxamides and method of use” (AbbVie S.à.r.l., priority 2015, dated 2019)
